In the NIST ThermoML archive (doi:10.1016/j.jct.2014.09.005):
± gives the expanded uncertainty stated by the source.

Assays:
[1] = refractive index (Na D-line) (dimensionless); conditions: 101.33 kPa, Liquid, Standard Abbe refractometry
[2] = 101.33 kPa, Liquid; for viscosity: Capillary tube (Ostwald / Ubbelohde) method; for mass density: Vibrating tube method

In the case of `NC1CCCCC1` [cyclohexylamine], the refractive index ([1]; 293.15 K) is reported as 1.45936 ± 0.00037, the refractive index ([1]; 298.15 K) is reported as 1.45694 ± 0.00037 and the refractive index ([1]; 303.15 K) is reported as 1.45427 ± 0.00037. The viscosity ([2]; 293.15 K) was 2.142 ± 0.046 mPa·s, the mass density ([2]; 293.15 K) was 867.2 ± 0.24 kg/m3 and the viscosity ([2]; 298.15 K) was 1.909 ± 0.041 mPa·s. For the same molecule, the mass density ([2]; 298.15 K) was 862.69 ± 0.24 kg/m3, the viscosity ([2]; 303.15 K) was 1.699 ± 0.036 mPa·s and the mass density ([2]; 303.15 K) was 858.12 ± 0.24 kg/m3.
For `CCCCCCCCCCO` [decan-1-ol], the refractive index ([1]; 293.15 K) was 1.43728 ± 0.00037, the refractive index ([1]; 298.15 K) was 1.43531 ± 0.00037 and the refractive index ([1]; 303.15 K) was 1.43345 ± 0.00037. It also gave a viscosity ([2]; 293.15 K) of 14.52 ± 0.3 mPa·s, a mass density ([2]; 293.15 K) of 829.97 ± 0.24 kg/m3 and a viscosity ([2]; 298.15 K) of 11.82 ± 0.25 mPa·s. The mass density ([2]; 298.15 K) was 826.58 ± 0.24 kg/m3, the viscosity ([2]; 303.15 K) was 9.738 ± 0.2 mPa·s and the mass density ([2]; 303.15 K) was 823.13 ± 0.24 kg/m3.
`CCCCCCCO` [heptan-1-ol] showed a refractive index ([1]; 293.15 K) of 1.42429 ± 0.00037, a refractive index ([1]; 298.15 K) of 1.42227 ± 0.00037 and a refractive index ([1]; 303.15 K) of 1.42023 ± 0.00037. It also gave a viscosity ([2]; 293.15 K) of 7.106 ± 0.15 mPa·s, a mass density ([2]; 293.15 K) of 822.52 ± 0.24 kg/m3 and a viscosity ([2]; 298.15 K) of 5.966 ± 0.13 mPa·s. The mass density ([2]; 298.15 K) was 818.99 ± 0.24 kg/m3, the viscosity ([2]; 303.15 K) was 4.841 ± 0.1 mPa·s and the mass density ([2]; 303.15 K) was 815.4 ± 0.24 kg/m3.
